# Measurements reported in ChEMBL document CHEMBL1201862, “PubChem BioAssay data set” (2004).
#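 Interpolation was linear, between the two tested concentrations surrounding the appropriate level; five concentrations were tested over 48 hours in 96-well plates. The concentration for 50% growth inhibition is given as GI50.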 Active and inactive are the calls of the source. Cut-off read from the data, not from the text of the source: active = GI50 up to about 1.1 µM and inactive = higher.
# Tests used:
# Assay in all cases: NCI tumour cell line growth inhibition, 48 h
# 786-0 = test system: 786-0
# COLO 205 = test system: COLO 205
# DU-145 = test system: DU-145
# HOP-62 = test system: HOP-62
# IGROV-1 = test system: IGROV-1
# LOX IMVI = test system: LOX IMVI
# MDA-MB-435 = test system: MDA-MB-435
# NCI-H23 = test system: NCI-H23
# NCI-H522 = test system: NCI-H522
# OVCAR-5 = test system: OVCAR-5
# OVCAR-8 = test system: OVCAR-8
# RPMI-8226 = test system: RPMI-8226
# SF-295 = test system: SF-295
# SNB-75 = test system: SNB-75
# TK-10 = test system: TK-10
# UO-31 = test system: UO-31
# OVCAR-3 = test system: OVCAR-3
# SF-539 = test system: SF-539
# NCI-H226 = test system: NCI-H226
# MDA-MB-231 = test system: MDA-MB-231
Compound,GI50 (786-0),GI50 (COLO 205),GI50 (DU-145),GI50 (HOP-62),GI50 (IGROV-1),GI50 (LOX IMVI),GI50 (MDA-MB-435),GI50 (NCI-H23),GI50 (NCI-H522),GI50 (OVCAR-5),GI50 (OVCAR-8),GI50 (RPMI-8226),GI50 (SF-295),GI50 (SNB-75),GI50 (TK-10),GI50 (UO-31),GI50 (OVCAR-3),GI50 (SF-539),GI50 (NCI-H226),GI50 (MDA-MB-231)
C=C1C(=O)O[C@H]2C1C[C@@H](OC(C)=O)/C(C)=C/CC[C@@]1(C)O[C@H]21 (stereo partly specified),11.5 µM (inactive),3.7 µM (inactive),14.6 µM (inactive),17.6 µM (inactive),7.67 µM (inactive),0.817 µM (active),22.4 µM (inactive),15.1 µM (inactive),2.26 µM (inactive),17.6 µM (inactive),16.1 µM (inactive),2.27 µM (inactive),21.1 µM (inactive),28.2 µM (inactive),6.12 µM (inactive),4.91 µM (inactive),–,–,–,–
Cc1cc(C)nc(NS(=O)(=O)c2ccc(Nc3nncc(=O)n3N)cc2)n1,15.8 µM (inactive),35.4 µM (inactive),34.3 µM (inactive),18.7 µM (inactive),15.1 µM (inactive),14.2 µM (inactive),18.6 µM (inactive),14.4 µM (inactive),12.8 µM (inactive),18.2 µM (inactive),15.4 µM (inactive),9.44 µM (inactive),31.6 µM (inactive),–,–,19.3 µM (inactive),16.3 µM (inactive),31.6 µM (inactive),–,–
COc1cc2c3c(c1OC)/C(=N/OS(=O)(=O)c1ccc(C)cc1)CC3N(S(=O)(=O)c1ccc(C)cc1)CC2 (stereo unspecified),> 100 µM (inactive),> 100 µM (inactive),–,> 100 µM (inactive),> 100 µM (inactive),> 100 µM (inactive),–,> 100 µM (inactive),> 100 µM (inactive),> 100 µM (inactive),93.3 µM (inactive),> 100 µM (inactive),> 100 µM (inactive),70.5 µM (inactive),> 100 µM (inactive),> 100 µM (inactive),> 100 µM (inactive),> 100 µM (inactive),> 100 µM (inactive),–
CN(C)CCONC(=O)C12CC3CC(CC(C3)C1)C2,> 100 µM (inactive),> 100 µM (inactive),–,> 100 µM (inactive),> 100 µM (inactive),> 100 µM (inactive),–,> 100 µM (inactive),> 100 µM (inactive),> 100 µM (inactive),> 100 µM (inactive),> 100 µM (inactive),> 100 µM (inactive),> 100 µM (inactive),> 100 µM (inactive),> 100 µM (inactive),> 100 µM (inactive),> 100 µM (inactive),> 100 µM (inactive),–
COc1ccc(C[C@@H]2CN(C(=O)c3ccccc3)[C@H](Cc3ccc(O)cc3)CN2C(=O)c2ccccc2)cc1Br,> 100 µM (inactive),> 100 µM (inactive),> 100 µM (inactive),> 100 µM (inactive),> 100 µM (inactive),> 100 µM (inactive),> 100 µM (inactive),> 100 µM (inactive),–,> 100 µM (inactive),> 100 µM (inactive),82.8 µM (inactive),> 100 µM (inactive),> 100 µM (inactive),> 100 µM (inactive),> 100 µM (inactive),> 100 µM (inactive),> 100 µM (inactive),> 100 µM (inactive),–
CCSc1nc(-c2cccs2)nc2ccc(I)cc12,> 100 µM (inactive),> 100 µM (inactive),> 100 µM (inactive),> 100 µM (inactive),> 100 µM (inactive),> 100 µM (inactive),> 100 µM (inactive),> 100 µM (inactive),> 100 µM (inactive),> 100 µM (inactive),> 100 µM (inactive),> 100 µM (inactive),> 100 µM (inactive),> 100 µM (inactive),39.6 µM (inactive),> 100 µM (inactive),11.2 µM (inactive),> 100 µM (inactive),> 100 µM (inactive),–
O=C1c2c(c(-c3ccccc3)c(-c3ccccc3)c(-c3ccccc3)c2-c2ccccc2)C(=O)N1c1cccc(Br)c1,> 100 µM (inactive),> 100 µM (inactive),–,> 100 µM (inactive),> 100 µM (inactive),> 100 µM (inactive),–,> 100 µM (inactive),> 100 µM (inactive),> 100 µM (inactive),> 100 µM (inactive),> 100 µM (inactive),> 100 µM (inactive),> 100 µM (inactive),> 100 µM (inactive),> 100 µM (inactive),> 100 µM (inactive),> 100 µM (inactive),> 100 µM (inactive),–
COC(=O)CCC(NC(=S)N/N=C(\C)c1ccccn1)C(=O)OC (stereo unspecified),65.8 µM (inactive),30 µM (inactive),–,57.3 µM (inactive),82.8 µM (inactive),44.2 µM (inactive),–,> 100 µM (inactive),33.3 µM (inactive),25.9 µM (inactive),66.8 µM (inactive),44.4 µM (inactive),59.2 µM (inactive),> 100 µM (inactive),> 100 µM (inactive),38.1 µM (inactive),38.8 µM (inactive),85.7 µM (inactive),60.7 µM (inactive),–
COc1cc2c3c(c1OC)C(=O)C(=O)C1=C3N(CCC1)CC2,43.4 µM (inactive),10.4 µM (inactive),38 µM (inactive),30.5 µM (inactive),28.7 µM (inactive),26.7 µM (inactive),22 µM (inactive),20.6 µM (inactive),19.7 µM (inactive),52.2 µM (inactive),21.5 µM (inactive),–,23.5 µM (inactive),–,70 µM (inactive),41 µM (inactive),23.6 µM (inactive),29.6 µM (inactive),–,31.3 µM (inactive)
CCOc1ccccc1NC(=O)C(C#N)C1=C(Cl)C(=O)c2ccccc2C1=O (stereo unspecified),1.79 µM (inactive),1.98 µM (inactive),–,6.04 µM (inactive),2.13 µM (inactive),0.74 µM (active),–,2.14 µM (inactive),2.09 µM (inactive),2.14 µM (inactive),0.792 µM (active),1.58 µM (inactive),1.72 µM (inactive),2.33 µM (inactive),2.22 µM (inactive),1.73 µM (inactive),1.6 µM (inactive),2.12 µM (inactive),2.13 µM (inactive),–
CCOc1ccc(NCc2cc(OC)c(OC)c(OC)c2)cc1,1.32 µM (inactive),0.495 µM (active),3.15 µM (inactive),0.675 µM (active),2.4 µM (inactive),0.918 µM (active),–,1.96 µM (inactive),0.452 µM (active),–,–,1.58 µM (inactive),0.417 µM (active),1.96 µM (inactive),–,9.02 µM (inactive),0.388 µM (active),0.562 µM (active),11.3 µM (inactive),1.57 µM (inactive)
O=C(O)Cc1ccc(Nc2nc3cc(C(F)(F)F)ccc3nc2C(=O)O)cc1,> 100 µM (inactive),> 100 µM (inactive),> 100 µM (inactive),> 100 µM (inactive),> 100 µM (inactive),> 100 µM (inactive),> 100 µM (inactive),> 100 µM (inactive),> 100 µM (inactive),> 100 µM (inactive),> 100 µM (inactive),–,> 100 µM (inactive),> 100 µM (inactive),> 100 µM (inactive),> 100 µM (inactive),> 100 µM (inactive),> 100 µM (inactive),> 100 µM (inactive),–
CN(C)c1ccc(NN=C2SC(=N\c3ccccc3)/C(=N/c3ccccc3)S2)cc1,> 100 µM (inactive),37.4 µM (inactive),> 100 µM (inactive),> 100 µM (inactive),> 100 µM (inactive),22.1 µM (inactive),20.4 µM (inactive),12.1 µM (inactive),6.03 µM (inactive),70.5 µM (inactive),64.9 µM (inactive),> 100 µM (inactive),> 100 µM (inactive),27.3 µM (inactive),> 100 µM (inactive),52.4 µM (inactive),–,53.7 µM (inactive),> 100 µM (inactive),–
C[C@@H]1CC[C@]2(C)C3(C)CC[C@]2(OC3=O)[C@@]12CC(c1ccoc1)OC2=O (stereo partly specified),20.5 µM (inactive),19.3 µM (inactive),> 100 µM (inactive),> 100 µM (inactive),26.9 µM (inactive),20.3 µM (inactive),25.3 µM (inactive),29.6 µM (inactive),2.15 µM (inactive),30.8 µM (inactive),–,38.2 µM (inactive),> 100 µM (inactive),–,39 µM (inactive),28 µM (inactive),26.2 µM (inactive),30.5 µM (inactive),> 100 µM (inactive),–
COc1ccc2c(c1)N=C1CSC(c3cccc(Br)c3)N1C2 (stereo unspecified),17.4 µM (inactive),17.4 µM (inactive),–,22.8 µM (inactive),18.6 µM (inactive),18.5 µM (inactive),10.5 µM (inactive),17.9 µM (inactive),14.4 µM (inactive),18.8 µM (inactive),23.7 µM (inactive),3.72 µM (inactive),14.2 µM (inactive),15.5 µM (inactive),16 µM (inactive),12.6 µM (inactive),–,17.9 µM (inactive),22.9 µM (inactive),17.8 µM (inactive)
CC1=CC(=O)/C(=C/NC(N)=S)C(=O)O1,> 100 µM (inactive),> 100 µM (inactive),> 100 µM (inactive),97.5 µM (inactive),> 100 µM (inactive),–,> 100 µM (inactive),> 100 µM (inactive),> 100 µM (inactive),> 100 µM (inactive),> 100 µM (inactive),–,> 100 µM (inactive),48.1 µM (inactive),10.1 µM (inactive),38.5 µM (inactive),> 100 µM (inactive),> 100 µM (inactive),> 100 µM (inactive),> 100 µM (inactive)
